According to patent US9738634B2, “Heterocyclic amide compound and herbicide” (SYNGENTA PARTICIPATIONS AG, priority 2013, dated 2017):

How the values were obtained:
Format in all cases: in vivo
Conditions in all cases: treatment dosage 320 g/ha
fig-leafed goosefoot [1] = assay: Test Example 4: weedkilling efficacy by foliar treatment; M: fig-leafed goosefoot
Outline: (§1)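 Seeds are spot-sown into sterilized diluvial soil and covered with about 1.5 cm of soil. After 14 days' greenhouse growth at 25 to 30° C, plants are sprayed on stems and leaves with diluted emulsion at the stated g/ha rate, then scored at 3 weeks.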

soybean [2] = assay: Test Example 4: foliar treatment, effect on crop; d: soybean
Outline: as §1

barnyard grass [3] = assay: Test Example 1: weedkilling efficacy, preemergent weed treatment in the submerged state; A: barnyard grass
Outline: (§2)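 Pots of alluvial soil flooded 4 cm deep, sown with barnyard grass, bulrush and oval-leafed pondweed and transplanted with 2.5-leaf rice. Emulsified compound applied to the water surface on sowing day at stated g/ha; greenhouse 25–30 °C, effects assessed 3 weeks after treatment.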

wheat [4] = assay: Test Example 4: foliar treatment, effect on crop; e: wheat
Outline: as §1

black-grass [5] = assay: Test Example 3: weedkilling efficacy through soil treatment; H: black-grass
Outline: (§3)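 Crop and weed responses were judged three weeks after a uniform surface spray of the water-diluted emulsion at the given g/ha rate. Seeds sat beneath about 1.5 cm of sterilized diluvial soil, and boxes stood in a greenhouse at 25 to 30° C.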

Italian ryegrass [6] = assay: Test Example 4: weedkilling efficacy by foliar treatment; I: Italian ryegrass
Outline: as §1

barnyard grass [7] = assay: Test Example 3: weedkilling efficacy through soil treatment; F: barnyard grass
Outline: as §3

rapeseed [8] = assay: Test Example 3: soil treatment, effect on crop; g: rapeseed
Outline: as §3

oval-leafed pondweed [9] = assay: Test Example 1: weedkilling efficacy, preemergent weed treatment in the submerged state; C: oval-leafed pondweed
Outline: as §2

bulrush [10] = assay: Test Example 2: weedkilling efficacy, growth period weed treatment in the submerged state; B: bulrush
Outline: (§4)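 Barnyard grass, bulrush and oval-leafed pondweed sown in alluvial soil under 4 cm flooding, greenhouse 25 to 30° C. At 1-2 leaf stage, water-diluted emulsion applied to the water surface at stated g/ha dosages; effects scored 3 weeks later.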

transplanted rice = assay: Test Example 1: preemergent weed treatment in the submerged state, effect on crop; a: transplanted rice
Outline: as §2

common wind-grass [11] = assay: Test Example 4: weedkilling efficacy by foliar treatment; J: common wind-grass
Outline: as §1

green foxtail [12] = assay: Test Example 3: weedkilling efficacy through soil treatment; E: green foxtail
Outline: as §3

catchweed [13] = assay: Test Example 3: weedkilling efficacy through soil treatment; O: catchweed
Outline: as §3

black-grass [14] = assay: Test Example 4: weedkilling efficacy by foliar treatment; H: black-grass
Outline: as §1

catchweed [15] = assay: Test Example 4: weedkilling efficacy by foliar treatment; O: catchweed
Outline: as §1

beet [16] = assay: Test Example 3: soil treatment, effect on crop; f: beet
Outline: as §3

Indian mallow [17] = assay: Test Example 4: weedkilling efficacy by foliar treatment; K: Indian mallow
Outline: as §1

barnyard grass [18] = assay: Test Example 4: weedkilling efficacy by foliar treatment; F: barnyard grass
Outline: as §1

common wind-grass [19] = assay: Test Example 3: weedkilling efficacy through soil treatment; J: common wind-grass
Outline: as §3

green foxtail [20] = assay: Test Example 4: weedkilling efficacy by foliar treatment; E: green foxtail
Outline: as §1

bulrush [21] = assay: Test Example 1: weedkilling efficacy, preemergent weed treatment in the submerged state; B: bulrush
Outline: as §2

directly sown rice [22] = assay: Test Example 3: soil treatment, effect on crop; b: directly sown rice
Outline: as §3

crabgrass [23] = assay: Test Example 3: weedkilling efficacy through soil treatment; D: crabgrass
Outline: as §3

soybean [24] = assay: Test Example 3: soil treatment, effect on crop; d: soybean
Outline: as §3

wild oat [25] = assay: Test Example 4: weedkilling efficacy by foliar treatment; G: wild oat
Outline: as §1

barnyard grass [26] = assay: Test Example 2: weedkilling efficacy, growth period weed treatment in the submerged state; A: barnyard grass
Outline: as §4

wild oat [27] = assay: Test Example 3: weedkilling efficacy through soil treatment; G: wild oat
Outline: as §3

rapeseed [28] = assay: Test Example 4: foliar treatment, effect on crop; g: rapeseed
Outline: as §1

crabgrass [29] = assay: Test Example 4: weedkilling efficacy by foliar treatment; D: crabgrass
Outline: as §1

birds-eye speedwell = assay: Test Example 3: weedkilling efficacy through soil treatment; p: birds-eye speedwell
Outline: as §3

Italian ryegrass [30] = assay: Test Example 3: weedkilling efficacy through soil treatment; I: Italian ryegrass
Outline: as §3

corn [31] = assay: Test Example 4: foliar treatment, effect on crop; c: corn
Outline: as §1

fig-leafed goosefoot [32] = assay: Test Example 3: weedkilling efficacy through soil treatment; M: fig-leafed goosefoot
Outline: as §3

beet [33] = assay: Test Example 4: foliar treatment, effect on crop; f: beet
Outline: as §1

Indian mallow [34] = assay: Test Example 3: weedkilling efficacy through soil treatment; K: Indian mallow
Outline: as §3

directly sown rice [35] = assay: Test Example 4: foliar treatment, effect on crop; b: directly sown rice
Outline: as §1

chickweed [36] = assay: Test Example 4: weedkilling efficacy by foliar treatment; N: chickweed
Outline: as §1

redroot pigweed [37] = assay: Test Example 4: weedkilling efficacy by foliar treatment; L: redroot pigweed
Outline: as §1

chickweed [38] = assay: Test Example 3: weedkilling efficacy through soil treatment; N: chickweed
Outline: as §3

corn [39] = assay: Test Example 3: soil treatment, effect on crop; c: corn
Outline: as §3

redroot pigweed [40] = assay: Test Example 3: weedkilling efficacy through soil treatment; L: redroot pigweed
Outline: as §3

oval-leafed pondweed [41] = assay: Test Example 2: weedkilling efficacy, growth period weed treatment in the submerged state; C: oval-leafed pondweed
Outline: as §4

wheat [42] = assay: Test Example 3: soil treatment, effect on crop; e: wheat
Outline: as §3

In the case of CC1=C(c2ccccc2)C(=O)N(C(C)(C)C(=O)Nc2ncccc2F)CO1 [B-2-24], the “M (fig-leafed goosefoot) weedkilling efficacy grade” value (fig-leafed goosefoot [1]) is reported as 4 (weed kill ratio 70% or more, less than 90%), the “d (soybean) effect on crop grade” value (soybean [2]) is reported as 0 (weed kill ratio 5% or less (practically no effect)) and the “A (barnyard grass) weedkilling efficacy grade” value (barnyard grass [3]) is reported as 2 (weed kill ratio 20% or more, less than 40%). For the same compound, the “e (wheat) effect on crop grade” value (wheat [4]) was 0 (weed kill ratio 5% or less (practically no effect)), the “H (black-grass) weedkilling efficacy grade” value (black-grass [5]) was 0 (weed kill ratio 5% or less (practically no effect)) and the “I (Italian ryegrass) weedkilling efficacy grade” value (Italian ryegrass [6]) was 0 (weed kill ratio 5% or less (practically no effect)). For the same compound, the “F (barnyard grass) weedkilling efficacy grade” value (barnyard grass [7]) was 3 (weed kill ratio 40% or more, less than 70%), the “g (rapeseed) effect on crop grade” value (rapeseed [8]) was 0 (weed kill ratio 5% or less (practically no effect)) and the “C (oval-leafed pondweed) weedkilling efficacy grade” value (oval-leafed pondweed [9]) was 3 (weed kill ratio 40% or more, less than 70%). For the same compound, the “B (bulrush) weedkilling efficacy grade” value (bulrush [10]) was 4 (weed kill ratio 70% or more, less than 90%), the “a (transplanted rice) effect on crop grade” value (transplanted rice) was 0 (weed kill ratio 5% or less (practically no effect)) and the “J (common wind-grass) weedkilling efficacy grade” value (common wind-grass [11]) was 1 (weed kill ratio 5% or more, less than 20%). The “E (green foxtail) weedkilling efficacy grade” value (green foxtail [12]) was 3 (weed kill ratio 40% or more, less than 70%), the “O (catchweed) weedkilling efficacy grade” value (catchweed [13]) was 0 (weed kill ratio 5% or less (practically no effect)) and the “H (black-grass) weedkilling efficacy grade” value (black-grass [14]) was 0 (weed kill ratio 5% or less (practically no effect)). The “O (catchweed) weedkilling efficacy grade” value (catchweed [15]) was 3 (weed kill ratio 40% or more, less than 70%), the “f (beet) effect on crop grade” value (beet [16]) was 0 (weed kill ratio 5% or less (practically no effect)) and the “K (Indian mallow) weedkilling efficacy grade” value (Indian mallow [17]) was 0 (weed kill ratio 5% or less (practically no effect)). For the same compound, the “F (barnyard grass) weedkilling efficacy grade” value (barnyard grass [18]) was 0 (weed kill ratio 5% or less (practically no effect)), the “J (common wind-grass) weedkilling efficacy grade” value (common wind-grass [19]) was 3 (weed kill ratio 40% or more, less than 70%) and the “E (green foxtail) weedkilling efficacy grade” value (green foxtail [20]) was 1 (weed kill ratio 5% or more, less than 20%). The “B (bulrush) weedkilling efficacy grade” value (bulrush [21]) was 5 (weed kill ratio 90% or more, (practically complete withering)), the “b (directly sown rice) effect on crop grade” value (directly sown rice [22]) was 0 (weed kill ratio 5% or less (practically no effect)) and the “D (crabgrass) weedkilling efficacy grade” value (crabgrass [23]) was 3 (weed kill ratio 40% or more, less than 70%). The “d (soybean) effect on crop grade” value (soybean [24]) was 0 (weed kill ratio 5% or less (practically no effect)), the “G (wild oat) weedkilling efficacy grade” value (wild oat [25]) was 0 (weed kill ratio 5% or less (practically no effect)) and the “A (barnyard grass) weedkilling efficacy grade” value (barnyard grass [26]) was 1 (weed kill ratio 5% or more, less than 20%). For the same compound, the “G (wild oat) weedkilling efficacy grade” value (wild oat [27]) was 0 (weed kill ratio 5% or less (practically no effect)), the “g (rapeseed) effect on crop grade” value (rapeseed [28]) was 0 (weed kill ratio 5% or less (practically no effect)) and the “D (crabgrass) weedkilling efficacy grade” value (crabgrass [29]) was 0 (weed kill ratio 5% or less (practically no effect)). For the same compound, the “P (birds-eye speedwell) weedkilling efficacy grade” value (birds-eye speedwell) was 0 (weed kill ratio 5% or less (practically no effect)), the “I (Italian ryegrass) weedkilling efficacy grade” value (Italian ryegrass [30]) was 0 (weed kill ratio 5% or less (practically no effect)) and the “c (corn) effect on crop grade” value (corn [31]) was 0 (weed kill ratio 5% or less (practically no effect)). For the same compound, the “M (fig-leafed goosefoot) weedkilling efficacy grade” value (fig-leafed goosefoot [32]) was 0 (weed kill ratio 5% or less (practically no effect)), the “f (beet) effect on crop grade” value (beet [33]) was 0 (weed kill ratio 5% or less (practically no effect)) and the “K (Indian mallow) weedkilling efficacy grade” value (Indian mallow [34]) was 0 (weed kill ratio 5% or less (practically no effect)). For the same compound, the “b (directly sown rice) effect on crop grade” value (directly sown rice [35]) was 0 (weed kill ratio 5% or less (practically no effect)), the “N (chickweed) weedkilling efficacy grade” value (chickweed [36]) was 2 (weed kill ratio 20% or more, less than 40%) and the “L (redroot pigweed) weedkilling efficacy grade” value (redroot pigweed [37]) was 0 (weed kill ratio 5% or less (practically no effect)). The “N (chickweed) weedkilling efficacy grade” value (chickweed [38]) was 3 (weed kill ratio 40% or more, less than 70%), the “c (corn) effect on crop grade” value (corn [39]) was 0 (weed kill ratio 5% or less (practically no effect)) and the “L (redroot pigweed) weedkilling efficacy grade” value (redroot pigweed [40]) was 0 (weed kill ratio 5% or less (practically no effect)). For the same compound, the “C (oval-leafed pondweed) weedkilling efficacy grade” value (oval-leafed pondweed [41]) was 3 (weed kill ratio 40% or more, less than 70%) and the “e (wheat) effect on crop grade” value (wheat [42]) was 0 (weed kill ratio 5% or less (practically no effect)).
